Patent publication US12636371B2, “Chemically coupled transporter for low-hydrophobicity bioactive drugs into the central nervous system” (Skybio LLC, priority 2021, dated 2026)
≈ marks a conversion by molar mass, not a printed value. Read-outs that look alike come from different tables or passages of the source.

Key:
E. coli DH5α = experiment: Antibiotic activity by disc diffusion assay (MIC); assay type: cell-based; settings: for MIC: Escherichia coli; for RATE MIC Compound/Doxycycline: ratio of MIC to doxycycline MIC
Protocol: In order to examine the antibiotic activity of the compounds synthesized in Example 1, an assay was performed using E. coli DH5α (Gram(−)), as a sensitive, indicator strain.
The antibacterial activities of test compounds were evaluated using the disc diffusion method (Kavanagh, F. Dilution methods of antibiotic assays in Analytical Microbiology. 1963; Pomares M F, Vincent P A, Farías R N, Salomón R A. Protective action of ppGpp in microcin J25-sensitive strains. J Bacteriol. 2008-190:4328-34). Briefly, filter-paper discs impregnated with 10 μl of two-fold serial dilutions of the test compounds, and were placed onto LB solid medium Petri dishes. Then, aliquots (50 μl) of an E. coli DH5α culture in stationary phase were mixed with 3 ml of top agar (0.7% agar) and overlaid onto the plates. After overnight incubation at 37° C., the plates were examined for different degrees of inhibition. Inhibition degrees produced by the test compound are expressed as Minimum Inhibitory Concentrations (MICs), defined as the lowest concentration of a compound that inhibit visible growth of bacteria. Each test was performed in duplicate vs. the reference compound Doxycycline.

SH-SY5Y cells = experiment: CellROX assay of intracellular reactive oxygen species induced by ASf; assay type: cell-based; settings: 10 μM compound alone, 24 h
Protocol: In order to characterize the antioxidant properties of D9, its protective action on the AS-induced production of reactive oxygen species (ROS) in a cellular model was assessed. For this, SH-SY5Y cells were treated with fibrils of AS (ASf) (AS incubated 120 h at 37° C. and 600 rpm), and the reactive oxygen species produced were examined using the CellROX® Orange Reagent (Invitrogen), which undergoes oxidation by ROS to form a stable fluorescent compound.
In addition, cells were also treated with doxycycline 10 μM+7 μM ASf (ASf+Doxy) as a positive control, and 10 μM doxycycline alone (Doxy). All conditions were incubated 24 h at 37° C. and 5% CO2. […] Fluorescent images of randomly chosen fields were acquired with identical acquisition parameters using a Zeiss Axio Vert.A1 inverted fluorescence microscope.

D1 dopamine receptor = D1 dopamine receptor (Homo sapiens, UniProt P21728); experiment: D1 receptor agonist assay, cAMP Nomad biosensor, HEK_cAMPNmd_FP650_D1 cells; settings: 24 h, 10 serial 1:3 dilutions from 30 μM, triplicate
D1 dopamine receptor, sequence (P21728 whole entry): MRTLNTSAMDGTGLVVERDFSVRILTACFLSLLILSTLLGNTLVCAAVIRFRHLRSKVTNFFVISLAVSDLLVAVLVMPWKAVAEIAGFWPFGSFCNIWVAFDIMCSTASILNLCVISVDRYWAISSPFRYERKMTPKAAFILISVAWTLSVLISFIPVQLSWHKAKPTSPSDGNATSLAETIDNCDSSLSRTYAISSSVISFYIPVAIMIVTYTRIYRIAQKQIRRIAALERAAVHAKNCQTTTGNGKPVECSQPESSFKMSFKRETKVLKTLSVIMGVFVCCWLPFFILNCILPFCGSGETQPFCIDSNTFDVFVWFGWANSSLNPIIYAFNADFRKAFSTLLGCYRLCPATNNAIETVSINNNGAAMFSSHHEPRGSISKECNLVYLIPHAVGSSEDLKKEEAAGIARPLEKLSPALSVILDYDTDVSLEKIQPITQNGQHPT
Protocol: To detect Nomad biosensor activation, the assay medium was removed and replaced by 100 ml of DPBS with calcium and magnesium. […] In U2OS_cAMPNmd_FP650_D2 cells, images were acquired using the CellInsight CX7 HCS Platform, and the number of fluorescent vesicles per cell was quantified with the HCS Studio Cell Analysis Software.

D2 dopamine receptor = D2 dopamine receptor (Homo sapiens, UniProt P14416); experiment: D2 receptor agonist assay, cAMP Nomad biosensor, U2OS_cAMPNmd_FP650_D2 cells; assay type: cell-based; settings: 24 h, 10 serial 1:3 dilutions from 30 μM, triplicate
D2 dopamine receptor, sequence (P14416 whole entry): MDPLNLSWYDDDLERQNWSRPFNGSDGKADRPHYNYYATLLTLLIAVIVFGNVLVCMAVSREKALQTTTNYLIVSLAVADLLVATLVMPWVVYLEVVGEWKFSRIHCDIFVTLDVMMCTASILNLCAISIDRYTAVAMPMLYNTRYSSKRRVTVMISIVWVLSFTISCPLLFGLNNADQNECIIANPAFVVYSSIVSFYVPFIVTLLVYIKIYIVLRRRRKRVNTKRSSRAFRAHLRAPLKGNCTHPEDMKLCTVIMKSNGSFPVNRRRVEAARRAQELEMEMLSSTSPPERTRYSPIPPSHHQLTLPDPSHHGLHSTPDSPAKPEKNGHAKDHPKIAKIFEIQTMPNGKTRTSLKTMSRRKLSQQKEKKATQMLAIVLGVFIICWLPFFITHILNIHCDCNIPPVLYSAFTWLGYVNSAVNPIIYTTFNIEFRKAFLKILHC
Protocol: HEK_cAMPNmd_FP650_D1 and U2OS_cAMPNmd_FP650_D2 cells were seeded at a density of 30.000 and 20.000 cells/well, respectively, in 96-well plates. Cells were maintained in DMEM or DMEM-F12 medium supplemented with 10% FBS during 24 h at 37° C. in a humidified 5% CO2 atmosphere.
Cells were then incubated for 24 h.
To detect Nomad biosensor activation, the assay medium was removed and replaced by […] of DPBS with calcium and magnesium. […] In U2OS_cAMPNmd_FP650_D2 cells, images were acquired using the CellInsight CX7 HCS Platform, and the number of fluorescent vesicles per cell was quantified with the HCS Studio Cell Analysis Software.
The effect of the compounds in the regulation of D1 or D2 receptors' activation was analyzed measuring the CAMP signaling using the Nomad biosensor-based assay.
This same experiment was carried out in the U2OS_cAMPNmd_FP650_D2 cell line (FIG. 10). The effect of the compounds was analyzed quantifying the number of fluorescent vesicles in the cytoplasm of the cells using the HCS Studio Cell Analysis Software.

[1] = disc diffusion, two-fold serial dilutions from 2 mg/ml, LB solid medium, overnight 37° C., read-out: MIC

SMILES	MIC (E. coli DH5α)	RATE MIC Compound/Doxycycline (E. coli DH5α)	MIC (E. coli DH5α; [1])	Intracellular ROS induced by compound alone (SH-SY5Y cells)	EC50, D1 receptor activation (D1 dopamine receptor)	EC50, D2 receptor activation (D2 dopamine receptor)
C[C@H]1c2cccc(O)c2C(=O)C2=C(O)[C@]3(O)C(=O)C(C(N)=O)=C(O)CC3[C@@H](O)C21 (some centres unmarked) [Compound D3, 4-dedimethylaminodoxycycline]	500 µg/mL (≈ 1250 µM)	16				
C[C@H]1c2ccc([N+](=O)[O-])c(O)c2C(=O)C2=C(O)[C@]3(O)C(=O)C(C(N)=O)=C(O)CC3[C@@H](O)C21 (some centres unmarked) [Compound D4, 4-dedimethylamino-9-nitro doxycycline]		32	1000 µg/mL (≈ 2240 µM)			
C[C@H]1c2cccc(O)c2C(=O)C2=C(O)[C@]3(O)C(=O)C(C(N)=O)=C(O)C(N(C)C)C3[C@@H](O)C21 (some centres unmarked) [Compound D1, Doxycycline Free Form, reference compound]		1	31.2 µg/mL (≈ 70.3 µM)			
C[C@H]1c2cccc(O)c2C(=O)C2=C(O)[C@]3(O)C(=O)C(C(N)=O)=C(O)[C@@H](N(C)C)[C@@H]3[C@@H](O)[C@@H]21 [Doxycycline, reference compound]			31.2 µg/mL (≈ 70.3 µM)	neither the presence of D9 nor doxycycline induced intracellular ROS		
C[C@H]1c2ccc(N)c(O)c2C(=O)C2=C(O)[C@]3(O)C(=O)C(C(N)=O)=C(O)CC3[C@@H](O)C21 (some centres unmarked) [Compound D5, 9-amino-4-dedimethylamino doxycycline]		8	250 µg/mL (≈ 600 µM)		did not act as an agonist of the D1 receptor	did not act as an agonist of the D2 receptor
C[C@H]1c2ccc(NC(=O)CCl)c(O)c2C(=O)C2=C(O)[C@]3(O)C(=O)C(C(N)=O)=C(O)CC3[C@@H](O)C21 (some centres unmarked) [Compound D6, 9-(2-chloroacetamido)-4-dedimethylamino doxycycline]	2000 µg/mL (≈ 4060 µM)	64				
